Assay: Human HepG2 cell viability assay in 384 well format
Assay type: toxicity, cell-based
Parameters: dose 125 nL, time 70.5 hour; cytotoxicity at 70.5 h: concentration not given beside the values
Conditions: HepG2 cells, read-out: Inhibition

| SMILES | cytotoxicity at 70.5 h |
| --- | --- |
| CC(C)c1nc2n(n1)CC(Nc1ncnc3c1CCC3)CC2 (stereo not given) | -13.9% |
| COCC1CN(S(=O)(=O)Cc2ccc(C)cc2)Cc2c1cnn2C (stereo not given) | -6.77% |
| COc1ccc(OC)c(CNC2CCCN(c3cccnn3)C2)c1 (stereo not given) | -3.12% |
| COc1ccc(CN2C[C@@H]3COC[C@H](N4CCN(C)CC4)[C@@H]3C2)cc1 | -5.19% |
| CCn1ncnc1CN1CCC(CNC(=O)c2ccccc2C#N)C1 (stereo not given) | 0.027% |
| CS(=O)(=O)N1CCC(C(=O)NCCCn2cc(Cl)cn2)CC1 | -13.1% |
| COc1ccc(CC2(CO)CCN(c3cc(N)ncn3)CC2)cc1 | -6.39% |
| Cc1nc(-c2ccc(F)cc2)cc(C2CCNCC2)n1 | -10% |
| CNC(=O)C(CC(C)C)NC(=O)c1cccc(-c2n[nH]c(C)n2)c1 (stereo not given) | 0.903% |
| Cc1ccc(N2CCCC(c3[nH]ncc3Cc3ccccc3)C2)nn1 (stereo not given) | 7.65% |
| CSc1ccc(CCN2CCN([C@H]3CCCC[C@@H]3O)CC2)cc1 | -8.75% |
| CCCn1cnnc1CNC1CCCC1 | 5.01% |
| COc1cccc(C(=O)N2C[C@H]3CC[C@@H]2CN(Cc2cscn2)C3)c1 | -23.3% |
| COc1ccc(N2CCN(Cc3nc(CSC)no3)C(C)C2=O)cc1 (stereo not given) | -21.8% |
| O=C(c1ccccc1-n1cccn1)N1CCCN(c2cccnn2)CC1 | -21.8% |
| COc1ccc2c(c1)OCC(Cc1ccc(N)nc1C)C2 (stereo not given) | -8.63% |
| O=C(CCC1CCCO1)NS(=O)(=O)c1ccc(Cl)cc1 (stereo not given) | -5.11% |
| COc1ccc(C(C)N2CCC(CNC(C)=O)CC2)cc1Cl (stereo not given) | -1.84% |
| O=C(CCc1nccs1)N1CCN(c2nccs2)CC1 | -7.6% |
| Cc1noc(C)c1-c1cccc(C2CCNCC2)n1 | 7.5% |
| COCCN(C)C(=O)c1ccc(OC)cc1O | -2.43% |
| CCN1CCN(c2ccc(F)cc2C(C)NCc2ccnn2C)CC1 (stereo not given) | -1.9% |
| Cn1ncc2c(=O)[nH]c(N3CCCC3c3cccc(Cl)c3)nc21 (stereo not given) | -1.55% |

| SMILES | cytotoxicity at 70.5 h |
| --- | --- |
| N[C@@H]1CCN(Cc2ccccc2CS(=O)(=O)c2ccccc2)C[C@H]1O | -8.1% |
| Cc1ccc(C(=O)NCC(O)c2cnn(C)c2)c(Br)c1 (stereo not given) | -14.7% |
| N#Cc1cn(C2CC2)c(=O)n(Cc2noc(-c3cccs3)n2)c1=O | -4.93% |
| CNC(=O)NC(=O)CN(CC(C)O)c1ccccc1 (stereo not given) | -3.36% |
| NC(=O)c1c(SCCN2CCCCC2)sc2c(O)cc(=O)[nH]c12 | -7.79% |
| O=C(O)[C@]12CCCN(Cc3ccoc3)C[C@H]1CN(c1ncccn1)C2 | -6.33% |
| Cc1c(COC(C)C)cccc1NC(=O)N1CCCC(CO)C1 (stereo not given) | -3.17% |
| COc1ccc(Cl)c(-c2noc3ncn(CCC(=O)O)c(=O)c23)c1 | -20.8% |
| CN(C)CCOCC1CN(Cc2ccc(F)cc2)Cc2nnn(C)c21 (stereo not given) | 2.45% |
| Cc1cccc(N2CC3(CCN(C(=O)NC(C)C)C3)CC2=O)c1 (stereo not given) | -9.16% |
| O=C(c1ccc(C2CCCO2)s1)N1CCN(c2ccccc2F)CC1 (stereo not given) | -4.35% |
| Cc1nccnc1CN1CCC2(CCCN(C3CCOCC3)C2=O)C1 (stereo not given) | -2.69% |
| CCS(=O)(=O)NC1CCc2c(ccc(=O)n2CC2CC2)C1 (stereo not given) | -7.75% |
| CCCc1nnc(NCCCn2nc(C)c(Cl)c2C)o1 | -7.76% |
| Cc1noc(C)c1-c1n[nH]c2c1CN(S(=O)(=O)c1ccsc1)CC2 | 15.3% |
| CCn1cc(CNCC(c2ccc(Cl)cc2)n2cccn2)cn1 (stereo not given) | -14.8% |
| CC(C)(C)c1cnc(CN2CCC(NC(=O)CC3CCCC3)CC2)o1 | 14% |
| O=C(CCOc1cccc(F)c1)N1CCCC1Cn1cccn1 (stereo not given) | -0.422% |
| CC(c1ccncn1)N(C)Cc1cc(O)c2cc(F)ccc2n1 (stereo not given) | -8.14% |
| CNC(=O)CN1CCC(CN(C)CCSc2ccccc2)CC1 | -0.471% |
| CCCSCC(=O)Nc1ncn(CC(=O)NCc2ccccc2)n1 | -5.44% |
| O=C(c1ccncc1)N1CCCC2(COCCN(c3ccccc3)C2)C1 (stereo not given) | -16.1% |

From ChEMBL document CHEMBL3507680, “University of Dundee, Gates Library screen for HepG2 cell viability”
